Where “and” joins values, the source holds several entries; their conditions need not be identical. Identical values can stand only once. Strand notation (5' to 3'): a small letter for the sugar, then the base; units joined by * are phosphorothioate-linked, units joined directly phosphodiester-linked; [ ] holds rarer units or linkages, { } end groups; capitals alone tell only the bases. e = 2'-O-(2-methoxyethyl) (MOE); f = 2'-fluoro
What was measured:
[1] = system: ischemia reperfusion injury/nephrectomy (IR/Nx) model; experiment: Ischemia reperfusion injury/nephrectomy (IR/Nx) model: urinary albumin to creatinine ratio; format: in vivo, mouse; details: for geometric mean of the urinary albumin to creatinine ratio: s.c. 20 mg/kg on days 2, 3, 4, 8, urine day 9, PBS control 127, nephrectomy-only 16
From the text: An ischemia reperfusion injury/nephrectomy (IR/Nx) model is created in the mouse through temporary unilateral clamping of an artery in one kidney, which leads to tubule damage, inflammation, and fibrosis, followed by removal of the second kidney at a later timepoint. In this model, the acute kidney dysfunction phase is useful to test candidate agents for the treatment of acute kidney injury (i.e. up to about the first 5 days), and the later phases of kidney dysfunction are useful to model chronic fibrosis (i.e. after about the first 5 days).
Anti-miR-21 compounds were tested in the IR/Nx model. 25109, a 6-base mismatch to miR-21, was used as a control compound ([…]; where nucleosides not followed by a subscript indicate β-deoxynucleosides; nucleosides followed by a subscript “E” indicate 2′-MOE nucleosides; nucleosides followed by a subscript “S” indicate S-cEt nucleosides; and all internucleoside linkages are phosphorothioate internucleoside linkages).
Unilateral IR was induced for a period of 30 minutes. Treatment groups were as follows: sham IR procedure; IR with PBS administered subcutaneously; IR with mismatched control 25109 administered subcutaneously at a dose of 20 mg/kg; IR with anti-miR-21 compound 25070 administered subcutaneously at a dose of 20 mg/kg; and IR with anti-miR-21 compound 25923 administered subcutaneously at a dose of 20 mg/kg. PBS or anti-miR was administered on days 2, 3, 4, and 8 following IR. On day 8, the healthy kidney was removed by nephrectomy from each animal, and animals were sacrificed on day 9. Just prior to sacrifice, urine was collected by direct bladder puncture.
Urinary albumin to creatinine ratio was measured in the urine from each mouse. […] The geometric mean of the albumin to creatinine ratio in each group of mice was 16 μgAlb/mgCr (nephrectomy-only control), 127 μgAlb/mgCr (IR/Nx, PBS control), 140 μgAlb/mgCr (IR/Nx, 25109 control), 40 μgAlb/mgCr (IR/Nx, 25070), and 31 μgAlb/mgCr (IR/Nx, 25923). Blood urea nitrogen and serum creatinine levels were similar across all IR/Nx mice, and were elevated relative to nephrectomy-only control mice (data not shown).

miR-21 = miR-21 luciferase sensor assay in Hela cells; format: cell-based
Experimental: The compounds were assessed for miR-21 inhibitory activity in a luciferase assay. A microRNA luciferase sensor construct was engineered using pGL3-MCS2 (Promega). The construct was introduced into Hela cells to test the ability of anti-miR compounds to inhibit activity of miR-21. In this assay, miR-21 present in the Hela cells binds to its cognate site(s) in the luciferase sensor construct, and suppresses luciferase expression. When the appropriate anti-miR is introduced into the cells, it binds to miR-21 and relieves suppression of luciferase expression. Thus, in this assay anti-miRs that are effective inhibitors of miR-21 expression will cause an increase in luciferase expression.
Day 1: Hela cells (ATCC), stably transfected with a luciferase construct engineered to contain a sequence complementary of miR-21, were seeded in T-170 flasks (BD Falcon) at 3.5*10^6 cells/flask. Hela cells were grown in Dulbecco's Modified Eagle Medium with High Glucose (Invitrogen).
Day 2: Each flask of Hela cells was transfected with 0.5 ug of a phRL sensor plasmid (Promega) expressing Renilla to be used in normalization. Hela cells were transfected using 20 ul Lipofectamine 2000/flask (Invitrogen). After 4 hours of transfection, cells were washed with PBS and trypsinized. Hela cells were plated at 40 k/well in 24 well plates (BD Falcon) and left overnight.
Day 3: Hela cells were transfected with anti-miRs using Lipofectin (Invitrogen) at 2.5 ul Lipofectin/100 nM ASO/ml Opti-MEM I Reduced Serum Medium (Invitrogen) for 4 hours. After ASO transfection, Hela cells were refed with Dulbecco's Modified Eagle Medium with High Glucose (Invitrogen).
Day 4: Hela cells are passively lysed and luciferase activity measured using the Dual-Luciferase Reporter Assay System (Promega).
The luciferase assay was performed to test the ability of anti-miRs with the nucleoside patterns described herein to inhibit the activity of miR-21. Results were compared to a ‘mock’ treatment, in which cells received no anti-miR treatment. The experiment was repeated and results of two experimental replicates are shown in the following Table B, as the luciferase value normalized to beta-galactosidase activity.
The luciferase assay was performed as described herein to test the ability of anti-miRs in Table F to inhibit the activity of miR-21. Results were compared to a ‘mock’ treatment, in which cells received no anti-miR treatment. The experiment was repeated and results of two experimental replicates are shown in the following Table D, as fold change in luciferase value relative to the mock treatment.

[2] = system: collagen 1A1 and collagen 3A1 expression in kidney, unilateral ureteral obstruction (UUO) model; experiment: UUO model of kidney fibrosis: kidney collagen 1A1 and collagen 3A1 expression by real-time PCR; format: in vivo, mice; details: UUO
Experimental: Unilateral ureteral obstruction (UUO) is a well-established experimental model of renal injury leading to interstitial fibrosis, and thus is used as an experimental model that is reflective of human kidney disease. UUO is induced by surgically ligating a single ureter. As fibrosis is characterized by an increase in collagen, the presence and extent of kidney fibrosis may be determined by measuring collagen content. Both collagen 1A1 (Col 1A1) and collagen 3A1 (Col 3A1) are measured to assess collagen content. Kidney fibrosis may be visualized by staining tissue samples with picro-sirius red to detect increases in collagen content. Kidney fibrosis may also be observed by measuring the amount of hydroxyproline, which is a major component of collagen, in a sample.
The cEt-containing anti-miR-21 compounds found to be active in the luciferase assay were tested in the UUO model of kidney fibrosis. 25919 comprising 2′-MOE and 2′-fluoro modifications is known to inhibit miR-21 activity in vivo and was included as a positive control. Groups of 8 animals each were treated as follows: UUO only, UUO with PBS, or UUO with anti-miR-21 compound. Relative to the day of the UUO procedure, PBS or anti-miR-21 compound was administered at days −3, −1, and +5. Anti-miR-21 compounds were administered at a dose of 20 mg/kg. As the anti-miR compounds were administered prior to the UUO procedure, this dosing regimen is considered a prophylactic treatment. At day 11, animals were sacrificed and kidney was isolated for measurement of collagen expression. Collagen expression was measured by real-time PCR and normalized first to GAPDH and then to the sham control animals. […]

[3] = system: ischemia reperfusion injury (IRI) model; experiment: Unilateral IRI model: collagen area fraction of kidney tissue; format: in vivo, mouse
Experimental: (§1) A model of ischemia reperfusion injury (IRI) is created in the mouse through unilateral or bilateral clamping of kidney arteries, which leads to tubule damage, inflammation, and fibrosis. Kidney dysfunction can occur either early (<5 days) or late (>7 days) in this model, with the early time points useful to test candidate agents for the treatment of acute kidney injury, and the later time points useful to model chronic fibrosis.
(§2) Anti-miR-21 compounds were tested in the unilateral IRI model. Unilateral IRI was induced for a period of 30 minutes. Treatment groups were as follows: sham IRI procedure; IRI with PBS administered subcutaneously; IRI with anti-miR-21 compound 25070 administered intraperitoneally at a dose of 20 mg/kg; the 2′-fluoro/2′-MOE modified anti-miR-21 25919 administered intraperitoneally at a dose of 20 mg/kg; and a 2′-fluoro/2′ modified mismatch anti-miR-21 (having three mismatches to the sequence of miR-21) 25319 administered intraperitoneally at a dose of 20 mg/kg. PBS or anti-miR compound was administered on days 5, 6, and 7 following IRI, and animals were sacrificed 14 days after IRI. As anti-miR compound is administered 5 days following the injury to the kidney, or later, when fibrosis has already occurred to some extent, this treatment regimen is considered a therapeutic regimen, rather than a prophylactic regimen.
(§3) Kidney tissue was collected for analysis of collagen 1A1 and collagen 3A1 expression (shown in Table O), and collagen area fraction (shown in Table P).
(§4) A similar study was performed with the same treatment groups and additional days of treatment. In this study, treatments were administered intraperitoneally at days 5, 6, 7, 14, and 21 following the IRI procedure Animals were sacrificed on Day 27, and kidney tissue was collected for analysis of collagen 1A1 and collagen 3A1 expression, as well as collagen area fraction.

[4] = system: collagen 1A1 and collagen 3A1 expression in kidney, ischemia reperfusion injury (IRI) model; experiment: Unilateral ischemia reperfusion injury (IRI) model: kidney collagen 1A1 and collagen 3A1 expression; format: in vivo, mouse; details: unilateral IRI
Experimental: as §1, §2, §3, §4
In order to assess the flexibility of administration of the anti-miR-21 compound 25070, the activity of the compound in the 14 day study above, where anti-miR-21 was administered at […] following the IRI procedure, to a different 14 day study where anti-miR-21 was administered intraperitoneally at days 3, 5, and 7 following the IRI procedure.

[5] = 20 mg/kg at days -5, -3, +3, kidney at day 10
[6] = 20 mg/kg intraperitoneally on days 5, 6, 7, sacrifice 14 days after IRI, 20 mg/kg
[7] = 20 mg/kg intraperitoneally on days 5, 6, 7, sacrifice 14 days after IRI, group mean
[8] = intraperitoneally on days 5, 6, 7, 14, 21, sacrifice Day 27
[9] = 20 mg/kg at days -3, -1, +5 (prophylactic), kidney at day 11, real-time PCR normalized to GAPDH then sham, 20 mg/kg

AEASATCSTGTCSTCAUSAATASAAE [Compound 25109, reference compound]
geometric mean of the urinary albumin to creatinine ratio [1]: 140 μgAlb/mgCr

AECSATCSAGTCSTGAUSAAGCSTAS (ACATCAGTCTGATAAGCTA; modified nucleosides coded in name, code key not given here) [Compound 25923, 25070 variant: 3'-terminal nucleoside is a cEt nucleoside rather than 2'-MOE nucleoside]
reduction in urinary albumin to creatinine ratio (in words) ([1]; s.c. 20 mg/kg on days 2, 3, 4, 8): statistically significant reductions
geometric mean of the urinary albumin to creatinine ratio [1]: 31 μgAlb/mgCr
inhibition of miR-21 in the luciferase assay (in words) (miR-21; Hela cells): demonstrated inhibition of miR-21 in a dose-dependent manner
fold change in luciferase value relative to the mock treatment (miR-21; concentration of anti-miR compound 0.2 (unit not given)): 1.06
fold change in luciferase value relative to the mock treatment (miR-21; concentration of anti-miR compound 0.6 (unit not given)): 1.01
fold change in luciferase value relative to the mock treatment (miR-21; concentration of anti-miR compound 1.9 (unit not given)): 1.10
fold change in luciferase value relative to the mock treatment (miR-21; concentration of anti-miR compound 5.6 (unit not given)): 5.18
fold change in luciferase value relative to the mock treatment (miR-21; concentration of anti-miR compound 16.7 (unit not given)): 11.34
fold change in luciferase value relative to the mock treatment (miR-21; concentration of anti-miR compound 50.0 (unit not given)): 10.81
reduction of collagen 1A1 expression (in words, FIG. 2A) [2, 5]: reduced collagen 1A1 and collagen 3A1 expression by a statistically significant amount
reduction of collagen 3A1 expression (in words, FIG. 2B) [2, 5]: reduced collagen 1A1 and collagen 3A1 expression by a statistically significant amount

UECEAFAFCFAFUFCFAFGFUFCEUEGEAFUFAFAFGFCFUEAE (eU*eC*fA*fA*fC*fA*fU*fC*fA*fG*fU*eC*eU*eG*fA*fU*fA*fA*fG*fC*eU*eA) [Compound 25919, positive control, reference compound]
Collagen Area Fraction (#), individual animal [3, 6]: 7.093 and 8.254 and 8.095 and 8.559 and 8.681 and 6.31 and 8.416 and 9.905
Collagen Area Fraction (#), Mean [3, 7]: 8.2
Collagen Area Fraction (#), individual animal [3, 8]: 11.882 and 9.755 and 9.506 and 12.654 and 20.319 and 11.551 and 12.224 and 14.468
luciferase value normalized to beta-galactosidase activity (miR-21; 4 nM oligonucleotide, Hela cells, mock transfection 50): 84
luciferase value normalized to beta-galactosidase activity (miR-21; .16 nM oligonucleotide, Hela cells, mock transfection 45): 40
luciferase value normalized to beta-galactosidase activity (miR-21; .8 nM oligonucleotide, Hela cells, mock transfection 33): 53
Collagen 1A1 (Normalized Expression), individual animal [2, 9]: 150.2 and 54.2 and 84.6 and 67.7 and 78.7 and 62.2 and 89.2 and 106.2
Collagen 3A1 (Normalized Expression), individual animal [2, 9]: 67.1 and 33.9 and 87.6 and 47.3 and 67.7 and 46.7 and 47.0 and 57.8
Collagen 1A1 (Normalized Expression), individual animal [4, 6]: 108.7 and 103.9 and 29.5 and 95.8 and 35.5 and 42.2 and 64.1 and 96.4
Collagen 3A1 (Normalized Expression), individual animal [4, 6]: 87.5 and 72.3 and 14.3 and 104 .4 and 27.1 and 34.9 and 56.1 and 82.8
Collagen 1A1 (Normalized Expression), Mean [4, 7]: 72.0
Collagen 1A1 (Normalized Expression), individual animal [4, 8]: 75.5 and 50.4 and 49.2 and 43.2 and 41.7 and 53.6 and 44.8 and 28.0
Collagen 3A1 (Normalized Expression), individual animal [4, 8]: 40.2 and 43.1 and 34.5 and 35.7 and 41.1 and 36.9 and 24.5 and 22.9
